Like-named read-outs stand apart in the source and are kept apart here.
What was measured:
[1] = target: Beta Secretase enzyme (BACE) (Homo sapiens (Human), UniProt P56817); test: In vitro enzymatic BACE FRET assay; assay type: biochemical
[2] = target: BACE (Homo sapiens (Human), UniProt P56817); test: In vitro BACE cell-based assay (Aβ40 in conditioned medium, sandwich ELISA)
[3] = target: Cathepsin D (Cat D) (Homo sapiens (Human), UniProt P07339); test: In vitro enzymatic Cathepsin D (Cat D) FRET assay; assay type: biochemical
[4] = read-out: BACE1 Enzyme assay IC50

Sequence of BACE (P56817 46-501, species assumed): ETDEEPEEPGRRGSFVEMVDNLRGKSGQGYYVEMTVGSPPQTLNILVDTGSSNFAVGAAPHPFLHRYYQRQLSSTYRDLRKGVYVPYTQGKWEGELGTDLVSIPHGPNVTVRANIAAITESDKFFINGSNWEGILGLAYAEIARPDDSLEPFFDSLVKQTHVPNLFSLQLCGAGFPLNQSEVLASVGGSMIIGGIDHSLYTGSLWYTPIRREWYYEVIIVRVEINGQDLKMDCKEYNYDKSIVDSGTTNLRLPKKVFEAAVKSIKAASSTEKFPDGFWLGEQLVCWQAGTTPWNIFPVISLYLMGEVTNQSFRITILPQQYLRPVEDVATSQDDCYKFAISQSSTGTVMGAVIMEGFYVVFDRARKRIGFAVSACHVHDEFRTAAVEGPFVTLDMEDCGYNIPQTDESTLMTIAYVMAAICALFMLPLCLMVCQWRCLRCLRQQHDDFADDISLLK
Sequence of Beta Secretase enzyme (BACE) (P56817 46-501): as the sequence (P56817 46-501, species assumed) above
Sequence of Cathepsin D (Cat D) (P07339 65-412, species assumed): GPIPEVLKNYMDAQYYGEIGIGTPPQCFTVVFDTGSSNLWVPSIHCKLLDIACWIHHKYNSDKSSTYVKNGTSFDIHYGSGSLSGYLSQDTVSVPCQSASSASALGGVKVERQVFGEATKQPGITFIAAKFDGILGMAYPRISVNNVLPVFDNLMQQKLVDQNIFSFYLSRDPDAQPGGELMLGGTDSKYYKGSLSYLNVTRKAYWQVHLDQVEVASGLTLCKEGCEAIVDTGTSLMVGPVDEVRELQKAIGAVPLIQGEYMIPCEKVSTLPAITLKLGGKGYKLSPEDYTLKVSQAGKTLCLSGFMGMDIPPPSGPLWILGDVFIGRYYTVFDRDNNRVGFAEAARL

SMILES | IC50 [1, 4] [µM] | IC50 [2] [µM] | IC50 ([3]; read-out: CatD IC50) [µM] | IC50 [3] [µM] | IC50 [1] [µM]
COc1cc(Cl)cnc1C(=O)Nc1ccc(Cl)c([C@@]2(CF)N=C(N)O[C@@H]3C[C@@H]32)c1 [Example 297, N-(3-((1R,5S,6R)-3-amino-5-(fluoromethyl)-2-oxa-4-azabicyclo[4.1.0]hept-3-en-5-yl)-4-chlorophenyl)-5-chloro-3-methoxypicolinamide] | 0.183 | 0.0074 | – | – | –
N#Cc1cnc2c(c1)CC[C@H]2Nc1ccc(F)c([C@@]2(C(F)F)N=C(N)O[C@@H]3C[C@@H]32)c1 [Example 401, (R)-7-((3-((1R,5S,6R)-3-amino-5-(difluoromethyl)-2-oxa-4-azabicyclo[4.1.0]hept-3-en-5-yl)-4-fluorophenyl)amino)-6,7-dihydro-5H-cyclopenta[b]pyridine-3-carbonitrile] | 0.108 | 0.0575 | – | – | –
Cc1cc(OC(F)F)cnc1C(=O)Nc1ccc(Cl)c(C2(C(F)F)N=C(N)O[C@@H]3C[C@@H]32)c1 (stereo partly drawn) [Example 209] | 0.0908 | 0.0765 | – | – | –
CC#Cc1cncc(-c2cc([C@]3(CF)N=C(N)O[C@H]4C[C@H]43)c(F)cc2CO)c1 [Example 432, (4-(((1S,R),(5R,S),(6S,R))-3-amino-5-(fluoromethyl)-2-oxa-4-azabicyclo[4.1.0]hept-3-en-5-yl)-5-fluoro-2-(5-(prop-1-yn-1-yl)pyridin-3-yl)phenyl)methanol] | 33.1 | – | 178 | – | –
N#Cc1cnc2c(Nc3ccc(Cl)c([C@]4(C(F)F)N=C(N)O[C@H]5C[C@H]54)c3)ncc(F)c2c1 [Example 351, 8-((3-((1S,5R,6S)-3-amino-5-(difluoromethyl)-2-oxa-4-azabicyclo[4.1.0]hept-3-en-5-yl)-4-chlorophenyl)amino)-5-fluoro-1,7-naphthyridine-3-carbonitrile] | 2.81 | – | > 14.8 | – | –
COc1cnc(C(=O)Nc2ccc(F)c([C@@]3(C)N=C(N)O[C@@H]4C[C@@H]43)n2)cn1 [Example 322, N-(6-((1R,5S,6R)-3-amino-5-methyl-2-oxa-4-azabicyclo[4.1.0]hept-3-en-5-yl)-5-fluoropyridin-2-yl)-5-methoxypyrazine-2-carboxamide] | 1.99 | 0.184 | – | – | –
NC1=N[C@@](c2cc(-n3cc(C#CC4CC4)cn3)ccc2F)(C(F)F)[C@H]2C[C@H]2O1 [Example 435] | 8.62 | – | 316 | – | –
N#Cc1cnc2c(c1)CC[C@@H]2Nc1ccc(F)c([C@@]2(C(F)F)N=C(N)O[C@@H]3C[C@@H]32)c1 (single isomer, unassigned) [Example 402] | 0.976 | 0.318 | – | – | –
NC1=N[C@@](c2cccc(NC(=O)c3ccc(Cl)cn3)c2)(C(F)F)[C@H]2C[C@H]2O1 [Example 265, N-(3-((1R,5S,6R)-3-amino-5-(difluoromethyl)-2-oxa-4-azabicyclo[4.1.0]hept-3-en-5-yl)phenyl)-5-chloropicolinamide] | 0.265 | – | 397 | – | –
NC1=N[C@](CF)(c2cccc(NC(=O)c3ccc(Cl)cn3)c2)[C@H]2C[C@H]2O1 (racemic) [Example 423, N-(3-(((1R,S),(5S,R),(6R,S))-3-amino-5-(fluoromethyl)-2-oxa-4-azabicyclo[4.1.0]hept-3-en-5-yl)phenyl)-5-chloropicolinamide] | 0.396 | – | 592 | – | –
NC1=N[C@@](c2cc(N[C@@H]3CCc4cc(Br)cnc43)ccc2F)(C(F)F)[C@H]2C[C@H]2O1 (single isomer, unassigned) [Example 380, (1R,5S,6R)-5-(5-(((R)-3-bromo-6,7-dihydro-5H-cyclopenta[b]pyridin-7-yl)amino)-2-fluorophenyl)-5-(difluoromethyl)-2-oxa-4-azabicyclo[4.1.0]hept-3-en-3-amine or (1R,5S,6R)-5-(5-(((S)-3-bromo-6,7-dihydro-5H-cyclopenta[b]pyridin-7-yl)amino)-2-fluorophenyl)-5-(difluoromethyl)-2-oxa-4-azabicyclo[4.1.0]hept-3-en-3-amine] | 0.143 | – | 336 | – | –
C[C@@]1(c2cc(NC(=O)c3ccc(Cl)cn3)cnc2F)N=C(N)O[C@H]2C[C@H]21 [Example 335, N-(5-((1S,5R,6S)-3-amino-5-methyl-2-oxa-4-azabicyclo[4.1.0]hept-3-en-5-yl)-6-fluoropyridin-3-yl)-5-chloropicolinamide] | 14.1 | – | > 400 | – | –
Cc1cc(C(F)F)cnc1C(=O)Nc1ccc(F)c([C@@]2(CF)N=C(N)O[C@@H]3C[C@@H]32)c1 [Example 201, N-(3-((1R,5S,6R)-3-amino-5-(fluoromethyl)-2-oxa-4-azabicyclo[4.1.0]hept-3-en-5-yl)-4-fluorophenyl)-5-(difluoromethyl)-3-methylpicolinamide] | 0.0638 | 0.0179 | – | – | –
NC1=N[C@](CF)(c2cc(NC(=O)c3ccc(Cl)cn3)cc(F)c2F)[C@H]2C[C@H]2O1 [Example 142, N-(3-(((1R,S),(5S,R),(6R,S))-3-amino-5-(fluoromethyl)-2-oxa-4-azabicyclo[4.1.0]hept-3-en-5-yl)-4,5-difluorophenyl)-5-chloropicolinamide] | – | 0.0263 | – | – | –
N#Cc1cnc2c(Nc3ccc(Cl)c([C@]4(C(F)F)N=C(N)O[C@H]5C[C@H]54)c3)ncc(F)c2c1 [Example 349, 8-((3-((1(R,S),5(S,R),6(R,S))-3-amino-5-(difluoromethyl)-2-oxa-4-azabicyclo[4.1.0]hept-3-en-5-yl)-4-chlorophenyl)amino)-5-fluoro-1,7-naphthyridine-3-carbonitrile] | 0.0829 | – | 88.4 | – | –
Cc1cc(C#N)cnc1C(=O)Nc1cc(F)c(Cl)c([C@]2(CF)N=C(N)O[C@H]3C[C@H]32)c1 [Example 139, N-(3-((1 S,5R,6S)-3-amino-5-(fluoromethyl)-2-oxa-4-azabicyclo[4.1.0]hept-3-en-5-yl)-4-chloro-5-fluorophenyl)-5-cyano-3-methylpicolinamide] | 14.2 | – | 646 | – | –
COc1cnc2c(Nc3ccc(F)c([C@]4(C)N=C(N)O[C@@H]5C[C@@H]54)c3)nccc2c1 [Example 338, (1R,5R,6R)-5-(2-fluoro-5-((3-methoxy-1,7-naphthyridin-8-yl)amino)phenyl)-5-methyl-2-oxa-4-azabicyclo[4.1.0]hept-3-en-3-amine] | > 40 | – | 56.6 | – | –
CC#CCOc1cnc(C(=O)Nc2ccc(Cl)c([C@]3(C(F)F)N=C(N)O[C@H]4C[C@H]43)c2)cn1 [Example 216, N-(3-((1S,5R,6S)-3-amino-5-(difluoromethyl)-2-oxa-4-azabicyclo[4.1.0]hept-3-en-5-yl)-4-chlorophenyl)-5-(but-2-yn-1-yloxy)pyrazine-2-carboxamide] | 0.838 | – | 500 | – | –
CC#CCOc1cnc(C(=O)Nc2ccc(Cl)c([C@]3(C(F)F)N=C(N)O[C@H]4C[C@H]43)c2)cn1 (racemic) [Example 210, N-(3-([1(R,S),5(S,R),6(R,S)]-3-amino-5-(difluoromethyl)-2-oxa-4-azabicyclo[4.1.0]hept-3-en-5-yl)-4-chlorophenyl)-5-(but-2-yn-1-yloxy)pyrazine-2-carboxamide] | 0.0039 | – | 569 | – | –
NC1=N[C@@](CF)(c2cc(NC(=O)c3ccc(Cl)cn3)ccc2Cl)[C@@H]2CC2O1 (stereo partly drawn) [Example 276, N-(3-(((1R,S), (5S,R), (6R,S))-3-amino-5-(fluoromethyl)-2-oxa-4-azabicyclo[4.1.0]hept-3-en-5-yl)-4-chlorophenyl)-5-chloropicolinamide] | 0.138 | – | 918 | – | –
NC1=N[C@@](c2cc(N[C@H](c3ccc(Cl)cn3)C(F)(F)F)ccc2F)(C(F)F)[C@H]2C[C@H]2O1 (mixture of isomers) [Example 422, (1R,5S,6R)-5-(5-(((R)-1-(5-chloropyridin-2-yl)-2,2,2-trifluoroethyl)amino)-2-fluorophenyl)-5-(difluoromethyl)-2-oxa-4-azabicyclo[4.1.0]hept-3-en-3-amine and (1R,5S,6R)-5-(5-(((S)-1-(5-chloropyridin-2-yl)-2,2,2-trifluoroethyl)amino-2-fluorophenyl)-5-(difluoromethyl)-2-oxa-4-azabicyclo[4.1.0]hept-3-en-3-amine] | 5.25 | – | 68.2 | – | –
NC1=N[C@@](c2cc(Nc3coc4cc(Cl)cnc34)ccc2F)(C(F)F)[C@H]2C[C@H]2O1 [Example 385, N-(3-((1R,5S,6R)-3-amino-5-(difluoromethyl)-2-oxa-4-azabicyclo[4.1.0]hept-3-en-5-yl)-4-fluorophenyl)-6-chlorofuro[3,2-b]pyridin-3-amine] | – | – | – | 153 | 0.253
NC1=N[C@](c2cc(-c3nc4ccc(Cl)cc4o3)ccc2F)(C(F)F)[C@@H]2C[C@@H]2O1 [Example 425, (1S,5R,6S)-5-(5-(6-chlorobenzo[d]oxazol-2-yl)-2-fluorophenyl)-5-(difluoromethyl)-2-oxa-4-azabicyclo[4.1.0]hept-3-en-3-amine] | 0.613 | – | 240 | – | –
CC#Cc1cncc(-c2ccc(F)c([C@@]3(CF)N=C(N)O[C@@H]4C[C@@H]43)c2)c1 [Example 431, (1(S,R),5(R,S),6(S,R))-5-(2-fluoro-5-(5-(prop-1-yn-1-yl)pyridin-3-yl)phenyl)-5-(fluoromethyl)-2-oxa-4-azabicyclo[4.1.0]hept-3-en-3-amine] | 4.69 | – | 91.6 | – | –
COc1cnc2c(Nc3ccc(F)c([C@@]4(C)N=C(N)O[C@H]5C[C@H]54)c3)nccc2c1 [Example 337, (1S,5S,6S)-5-(2-fluoro-5-((3-methoxy-1,7-naphthyridin-8-yl)amino)phenyl)-5-methyl-2-oxa-4-azabicyclo[4.1.0]hept-3-en-3-amine] | 3.35 | – | > 400 | – | –
NC1=N[C@](c2cc(NC(=O)c3nn(C(F)F)cc3Cl)ccc2Cl)(C(F)F)[C@@H]2C[C@@H]2O1 [Example 225, N-(3-((1S,5R,6S)-3-amino-5-(difluoromethyl)-2-oxa-4-azabicyclo[4.1.0]hept-3-en-5-yl)-4-chlorophenyl)-4-chloro-1-(difluoromethyl)-1H-pyrazole-3-carboxamide] | 8.27 | – | 1340 | – | –
